# Measured values taken from patent US7223718B2, “Enhanced glyphosate herbicidal concentrates” (Falcon Lab LLC, priority 2005, dated 2007).
# Experiment: Hygroscopicity: exposure to air on a balance for three days
# Assay type: physicochemical
# Conditions: exposed to air on a balance
# From the text: A mechanical mixture of 10 gm. of dry, solid isopropylammonium glyphosate and 20 gm. of dry, solid ammonium pelargonate was made by thoroughly grinding and mixing the two solids to assure a homogeneous powder. The resulting 30 gm. was exposed to the air in a weighing dish on a balance to determine if the mixture was hygroscopic or dry. […] To this mixture was further added 3 gm. of powdered 85% potassium hydroxide and the solids again thoroughly mixed. This solid mixture contained the equivalent of 30% isopropylammonium glyphosate and 60% ammonium pelargonate, being a solid enhanced glyphosate herbicide concentrate.
# A 50 gm. portion of a 53.8% glyphosate solution as the isopropylammonium salt (Monsanto Aquamaster®) was placed in a glass shallow evaporating dish. To this was added 10 gm. of 28-30% ammonium hydroxide and the solution thoroughly mixed by slowly tilting the dish. The dish was then exposed to air at ambient conditions for 2 weeks during which time the water evaporated off leaving a white crystalline solid weighing 38.9 gm. […] By the method it was prepared and the yield obtained it was determined to be the mixed salt ammonium, (isopropylammonium)glyphosate. The melting point was 200-205° C. (isopropyl ammonium glyphosate melts at 155-158° C.) The FT-IR spectrum in KBr is: […]
substance,measurement,value
"ammonium, (isopropylammonium)glyphosate",Hygroscopicity (weight change on exposure to air),non-hygroscopic
